The results in this text go back to BindingDB's records for doi:10.1111/cbdd.12572 (Depaul University, 2015).

pIC50: −log10 of the molar value. Some results are limits rather than exact numbers.

This assay concerns the target T1, Caspase-1 (Homo sapiens, UniProt P29466).
T1 sequence (P29466 whole entry): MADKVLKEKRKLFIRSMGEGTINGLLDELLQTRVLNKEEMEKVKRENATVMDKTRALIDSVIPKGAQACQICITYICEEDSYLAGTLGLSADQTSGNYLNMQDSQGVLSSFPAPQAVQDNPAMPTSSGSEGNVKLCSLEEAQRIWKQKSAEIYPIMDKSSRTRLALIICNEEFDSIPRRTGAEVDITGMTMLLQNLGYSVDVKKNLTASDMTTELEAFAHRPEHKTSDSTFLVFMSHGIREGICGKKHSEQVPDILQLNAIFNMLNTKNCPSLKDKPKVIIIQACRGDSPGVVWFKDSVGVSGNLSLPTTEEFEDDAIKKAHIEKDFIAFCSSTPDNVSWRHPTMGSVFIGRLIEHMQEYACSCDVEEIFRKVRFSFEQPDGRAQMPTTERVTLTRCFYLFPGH
Kind of assay: Inhibition Assay. To be noted: pH 7.5; 25 °C. How it is done:
All assays were performed at 100 µL total volume in triplicate and monitored for 60 minutes at room temperature in a 96-well plate format in HEPES Buffer (100 mM HEPES, 100 mM NaCl, 0.1% CHAPS, 10% sucrose, pH 7.5) on a BioTek Synergy H1 plate reader. Fluorescence was measured with excitation and emission wavelengths of 380 nm and 460 nm, respectively. Caspase-1 was activated with 100 µM DTT for 30 minutes and held constant at 5 nM for all assays. WEHD-AMC was used as a substrate for all assays at 10 µM unless otherwise specified and reactions were monitored immediately upon addition to caspase-1.
Regarding `Cc1c(C)c2c(c(C)c1O)CC[C@](C)(CN1CCN(c3cc(N4CCCC4)nc(N4CCCC4)n3)CC1)O2` [U83836E (B8)], the pIC50 is 6.78.

As for `Cc1cc2c(C(C)C)c(O)c(O)c(C=O)c2c(O)c1-c1c(C)cc2c(C(C)C)c(O)c(O)c(C=O)c2c1O` [Tash 1], the pIC50 was 5.91.

For `CCCCCCCCOC(=O)/C=C/c1ccc(O)c(O)c1` [Octyl (2E)‐3‐(3,4‐dihydroxyphenyl)prop‐2‐enoate (E6)], the negative-log IC50 (pIC50) is 6.08.

Consider `CCN(CC)C(=S)SSC(=S)N(CC)CC` [1,1',1'',1'''-[disulfanediylbis(carbonothioylnitrilo)]tetraethane], for which the pIC50 was 5.74.

For `O=c1c2ccccc2[se]n1-c1ccccc1` [2-Phenyl-benzo[d]isoselenazol-3-one], the pIC50 was 5.39.

`CCCCCC#CCC#CCC#CCC#CCCCC(=O)O`: the pIC50 is < 5.00.

As to `CC1=CC(=O)C(C(C)C)=CC1=O` [2-methyl-5-(propan-2-yl)cyclohexa-2,5-diene-1,4-dione (F8)], the pIC50 was 5.97.

As to `CC/C=C\C/C=C\C/C=C\C/C=C\C/C=C\C/C=C\CCC(=O)O` [all-cis-docosa-4,7,10,13,16,19-hexaenoic acid], the pIC50 is 5.17.

In the case of `CCCCCCCCCCCCCCCC(=O)OC[C@H](O)[C@H]1OC(=O)C(O)=C1O` [Ascorbyl Palmitate], the pIC50 is 6.22.

Regarding `N#C/C(=C\c1ccc(O)c(O)c1)C(=O)OC/C=C/c1ccccc1`, the pIC50 was 5.65.

In the case of `CC1(C)CCC2=C(O1)c1ccccc1C(=O)C2=O` [R115 (Reactive Blue 2)], the pIC50 was 5.77.

Regarding `CC(Cc1ccc(O)c(O)c1)C(C)Cc1ccc(O)c(O)c1` (stereo not drawn) [LOX inhibitor, N/A], the pIC50 was < 5.00.

For the compound `C[C@]12C=CC(=O)C=C1CC[C@@H]1C2=CC[C@]2(C)[C@@H](C(=O)CN3CCN(c4cc(N5CCCC5)nc(N5CCCC5)n4)CC3)CC[C@@H]12` [U74389G (B9)], the pIC50 was 6.76.

What is called pIC50 is the IC50 on a negative log10 scale, so that one unit is a factor of ten.
